# Measured values: US20260344661A1, “USE OF AN ALKYLETHER SULFATE FOR IMPROVING THE EFFICACY OF HERBICIDES” (BASF SE, priority 2022, published 2026)
# Tests used:
# [1] = test system: ECHCG (barnyardgrass); test: Greenhouse post-emergence weed control, damage vs untreated (ECHCG); type: in vivo, Echinochloa crus-galli
# Protocol: (§1) A greenhouse study was conducted to evaluate the effect of the alkylether sulfates of formula (I) and other adjuvants on the weed control efficacy of glufosinate. Seedlings of grass plants (AVEFA, ECHCG, DIGSA and SETVI) and broadleaf weeds (KCHSC, CHEAL, AMAPA, AMATA and ABUTH) were grown to a height of 3 to 20 cm, depending on the plant habit in 10×10×10 cm pots filled with sandy planting soil (Limburgerhof soil). The weeds were treated with postemergence applications of glufosinate ammonium at the respective application rates given in the following tables, either alone or combined with various amounts of the respective adjuvants.
# (§2) For this, the herbicide formulation and the respective adjuvant were introduced into tap water to obtain the spray liquor. […] The spray liquor was then applied to the plant a spray volume of 200 l/ha using a sprayer (XR Teejet 110015).
# (§3) The test period extended over 21 days. During this time, the plants were tended, and their response to the treatments with active compound was evaluated.
# (§4) The evaluation for the damage caused by the chemical compositions was carried out using a scale from 0 to 100%, compared to the untreated control plants. Here, 0 means no damage and 100 means complete destruction of the plants.
# (§5) The plants used in the greenhouse experiments belonged to the following species:
# (§6) The results are summarized in the following tables 1 to 15 that show the applied doses of the individual actives as gram of active ingredient per hectare (g ai/ha), the herbicidal activity of the individual […]
# [2] = test system: DIGSA (large crabgrass); test: Greenhouse post-emergence weed control, damage vs untreated (DIGSA); type: in vivo, Digitaria sanguinalis; settings: 20 DAT
# Protocol: as §1, §2, §3, §4
# (§7) The plants used in the greenhouse experiments belonged to the following species: […]
# [3] = test system: AVEFA (wild oat); test: Greenhouse post-emergence weed control, damage vs untreated (AVEFA); type: in vivo, Avena fatua
# Protocol: as §1, §2, §3, §4, §5, §6
# [4] = test system: Øgras (average value of AVEFA, ECHCG, DIGSA and SETVI); test: Greenhouse post-emergence weed control, average over grasses (Øgras); type: in vivo
# Protocol: as §1, §2, §3, §4, §5, §6
# [5] = test system: AMAPA (palmer amaranth); test: Greenhouse post-emergence weed control, damage vs untreated (AMAPA); type: in vivo, Amaranthus palmeri; settings: 20 DAT
# Protocol: as §1, §2, §3, §4, §5
# (§8) The results are summarized in the following tables 1 to 15 that show the applied doses of the individual actives as gram of active ingredient per hectare (g ai/ha), the herbicidal activity of the individual actives and of their combinations in post-emergence application assessed 14 and 28 day after treatment (DAT), respectively.
# [6] = test system: SETVI (green foxtail); test: Greenhouse post-emergence weed control, damage vs untreated (SETVI); type: in vivo, Setaria viridis
# Protocol: as §1, §2, §3, §4, §5, §6
# [7] = test system: CHEAL (lambsquarter); test: Greenhouse post-emergence weed control, damage vs untreated (CHEAL); type: in vivo, Chenopodium album
# Protocol: as §1, §2, §3, §4, §5, §6
# [8] = test system: AMATA (common water hemp); test: Greenhouse post-emergence weed control, damage vs untreated (AMATA); type: in vivo, Amaranthus tuberculatus; settings: 20 DAT
# Protocol: as §1, §2, §3, §4, §5, §8
# [9] = test system: KCHSC (kochia); test: Greenhouse post-emergence weed control, damage vs untreated (KCHSC); type: in vivo, Kochia scoparia; settings: 20 DAT
# Protocol: as §1, §2, §3, §4, §7
# [10] = test system: HORVS (spring barley); test: Greenhouse post-emergence weed control, damage vs untreated (HORVS); type: in vivo; settings: 20 DAT
# [11] = test system: ABUTH (velvetleaf); test: Greenhouse post-emergence weed control, damage vs untreated (ABUTH); type: in vivo, Abutilon theophrasti; settings: 20 DAT
# Protocol: as §1, §2
# […] During this time, the plants were tended, and their response to the treatments with active compound was evaluated.
# as §4, §7
# [12] = test system: AMATU (tall waterhemp); test: Greenhouse post-emergence weed control, damage vs untreated (AMATU); type: in vivo, Amaranthus tuberculatus; settings: 20 DAT
# Protocol: as §1, §2, §3, §4, §5, §8
# [13] = test system: HORVW (winter barley); test: Greenhouse post-emergence weed control, damage vs untreated (HORVW); type: in vivo, Hordeum vulgare; settings: 20 DAT
# [14] = test system: ØBLV (average value of KCHSC, CHEAL, AMAPA, AMATA and ABUTH); test: Greenhouse post-emergence weed control, average over broadleaf weeds (ØBLV); type: in vivo; settings: 20 DAT
# Protocol: as §1, §2, §3, §4, §5, §8
# [15] = test system: TRZAS (spring wheat); test: Greenhouse post-emergence weed control, damage vs untreated (TRZAS); type: in vivo, Soft wheat (spring)
# [16] = 5 g ai/ha L-glufosinate (so in the source), no adjuvant
# [17] = 37.5 g ai/ha L-glufosinate, adjuvant g ai/ha: none (CE1-B), 56 (IE2-A), 62.125 (IE2-B), 51.625 (CE2-F)
# [18] = 150 g ai/ha L-glufosinate, adjuvant g ai/ha: none (CE1-B), 223 (IE2-A), 248.5 (IE2-B), 206.5 (CE2-F)
# [19] = 300 g ai/ha L-glufosinate, adjuvant g ai/ha: none (CE1-B), 446 (IE2-A), 497 (IE2-B), 413 (CE2-F)
# [20] = g ai/ha: 42.375 solo (CE1-C), 42.375 + 66.97 combined (IE3-A/B/C, CE2-J)
# [21] = g ai/ha: 84.75 solo (CE1-C), 84.75 + 133.94 combined (IE3-A/B/C, CE2-J)
# [22] = g ai/ha: 169.5 solo (CE1-C), 169.5 + 267.89 combined (IE3-A/B/C, CE2-J)
# [23] = g ai/ha: 339 solo (CE1-C), 339 + 535.77 combined (IE3-A/B/C, CE2-J)
smiles,measurement,setting,value
"CP(=O)(O)CC[C@H](N)C(=O)O.N [CE1-B, ammonium (2S)-2-amino-4-(methylphosphinato)butyric acid]",% activity,[1]; [16],0%
same,% activity,[1]; [17],0%
same,% activity,[1]; [18],20%
same,% activity,[1]; [19],60%
same,% activity ECHCG,[1]; [20],0%
same,% activity ECHCG,[1]; [21],3%
same,% activity ECHCG,[1]; [22],3%
same,% activity ECHCG,[1]; [23],20%
same,% activity,[2]; [16],0%
same,% activity DIGSA,[2]; [20],5%
same,% activity DIGSA,[2]; [21],15%
same,% activity DIGSA,[2]; [22],55%
same,% activity DIGSA,[2]; [23],70%
same,% activity,[2]; [17],0%
same,% activity,[2]; [18],30%
same,% activity,[2]; [19],40%
same,% activity,[3]; [16],5%
same,% activity,[3]; [17],0%
same,% activity,[3]; [18],10%
same,% activity,[3]; [19],20%
same,% activity AVEFA,[3]; [20],3%
same,% activity AVEFA,[3]; [21],3%
same,% activity AVEFA,[3]; [22],5%
same,% activity AVEFA,[3]; [23],8%
same,% activity (Øgras),[4]; [16],26%
same,% activity (Øgras),[4]; [17],21%
same,% activity (Øgras),[4]; [18],40%
same,% activity (Øgras),[4]; [19],54%
same,% activity,[5]; [16],60%
same,% activity,[5]; [17],98%
same,% activity,[5]; [18],98%
same,% activity,[5]; [19],98%
same,% activity,[6]; [16],98%
same,% activity,[6]; [17],85%
same,% activity,[6]; [18],98%
same,% activity,[6]; [19],95%
same,% activity,[7]; [16],0%
same,% activity,[7]; [17],0%
same,% activity,[7]; [18],0%
same,% activity,[7]; [19],15%
same,% activity CHEAL,[7]; [20],0%
same,% activity CHEAL,[7]; [21],0%
same,% activity CHEAL,[7]; [22],5%
same,% activity CHEAL,[7]; [23],10%
same,% activity,[8]; [16],95%
same,% activity,[8]; [17],20%
same,% activity,[8]; [18],98%
same,% activity,[8]; [19],98%
same,% activity,[9]; [16],5%
same,% activity KCHSC,[9]; [20],3%
same,% activity KCHSC,[9]; [21],3%
same,% activity KCHSC,[9]; [22],28%
same,% activity KCHSC,[9]; [23],35%
same,% activity,[9]; [17],0%
same,% activity,[9]; [18],5%
same,% activity,[9]; [19],10%
same,% activity HORVS,[10]; [20],0%
same,% activity HORVS,[10]; [21],0%
same,% activity HORVS,[10]; [22],0%
same,% activity HORVS,[10]; [23],10%
same,% activity,[11]; [16],10%
same,% activity ABUTH,[11]; [20],5%
same,% activity ABUTH,[11]; [22],30%
same,% activity ABUTH,[11]; [23],68%
same,% activity,[11]; [17],10%
same,% activity,[11]; [18],30%
same,% activity,[11]; [19],60%
same,% activity AMATU,[12]; [20],23%
same,% activity AMATU,[12]; [21],75%
same,% activity AMATU,[12]; [22],45%
same,% activity AMATU,[12]; [23],97%
same,% activity,[13]; [16],0%
same,% activity,[13]; [17],5%
same,% activity,[13]; [18],5%
same,% activity,[13]; [19],15%
same,% activity (ØBLV),[14]; [16],34%
same,% activity (ØBLV),[14]; [17],26%
same,% activity (ØBLV),[14]; [18],46%
same,% activity (ØBLV),[14]; [19],56%
same,% activity TRZAS,[15]; [20],0%
same,% activity TRZAS,[15]; [21],0%
same,% activity TRZAS,[15]; [22],5%
same,% activity TRZAS,[15]; [23],5%
